Test results taken from publication PMC9504056, “A Novel L-Phenylalanine Dipeptide Inhibits the Growth and Metastasis of Prostate Cancer Cells via Targeting DUSP1 and TNFSF9” (International Journal of Molecular Sciences, 2022).

Legend:
[1] = molecular target: T1, DUSP1 (Homo sapiens, UniProt P28562); test: cellular thermal shift assay (CETSA), Western blot; type: cell-based; conditions: PC3 cells treated 2 h with 0.01-100 µmol/L; heated at 53 °C for 3 min
T1 construct: endogenous protein in human PC3 prostate cancer cells, detected by Western blot (Abcam ab61201)
T1 sequence (P28562 1-367): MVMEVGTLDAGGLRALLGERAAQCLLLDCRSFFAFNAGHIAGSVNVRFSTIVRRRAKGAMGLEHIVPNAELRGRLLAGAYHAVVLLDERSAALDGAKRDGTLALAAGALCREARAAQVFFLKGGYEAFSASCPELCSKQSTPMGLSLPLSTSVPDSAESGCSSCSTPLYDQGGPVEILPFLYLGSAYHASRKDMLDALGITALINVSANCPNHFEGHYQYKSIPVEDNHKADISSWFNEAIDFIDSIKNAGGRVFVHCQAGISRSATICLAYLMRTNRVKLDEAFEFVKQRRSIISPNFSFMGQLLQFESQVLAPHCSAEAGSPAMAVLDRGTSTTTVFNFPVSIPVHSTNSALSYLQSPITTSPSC

[2] = molecular target: T2, TNFSF9 (Homo sapiens, UniProt P41273); test: cellular thermal shift assay (CETSA), Western blot; type: cell-based; conditions: PC3 cells treated 2 h with 0.01-100 µmol/L; heated at 53 °C for 3 min
T2 construct: endogenous protein in human PC3 prostate cancer cells, detected by Western blot (Abcam ab68185)
T2 sequence (P41273 whole entry): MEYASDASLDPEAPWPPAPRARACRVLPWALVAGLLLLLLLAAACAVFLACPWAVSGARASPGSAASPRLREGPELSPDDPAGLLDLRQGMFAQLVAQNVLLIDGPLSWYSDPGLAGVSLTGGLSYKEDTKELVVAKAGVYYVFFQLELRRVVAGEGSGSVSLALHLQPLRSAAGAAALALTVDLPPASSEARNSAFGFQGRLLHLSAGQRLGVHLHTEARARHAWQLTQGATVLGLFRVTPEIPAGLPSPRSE

## CCN(CC)CCOc1ccc(C[C@H](NC(=O)c2ccc(OCc3ccccc3)cc2)C(=O)N[C@H](CO)Cc2ccccc2)cc1 [HXL131]
[1]
  cellular thermal shift assay (CETSA), Western blot: HXL131 could stably bind DUSP1 and TNFSF9 proteins
[2]
  cellular thermal shift assay (CETSA), Western blot: HXL131 could stably bind DUSP1 and TNFSF9 proteins
